Laboratory results from patent publication US10584127B2, “3,3-difluoropiperidine carbamate heterocyclic compounds as NR2B NMDA receptor antagonists” (Rugen Holdings (Cayman) Limited, priority 2015, dated 2020).

How the values were obtained:
[1] = test system: NMDA receptor (all subtypes), native rat brain receptors; assay: [3H] MK-801 radioligand binding assay, rat brain membranes; conditions: 2 nM [3H] MK-801, rat brain membranes
Experimental: This example describes NMDA receptor binding assays using two different radioligands, [^3H] […] An established binding assay using the non-selective NMDA receptor ligand [^3H] […] The binding assay method using the NR2B selective receptor ligand [^3H] […] This assay serves as a selective measure of NR2B receptor binding activity in native rat brain receptors. Briefly, the brains of Male Wistar rats were homogenized (Polytron) before centrifugation at 40,000×g for 15 minutes at 4° C. After 2 washes, the final pellet was homogenized and stored at −80° C. The protein concentration was determined by Bradford assay.
Test compounds were solubilized at 10 mM in DMSO. Then the dilutions were performed with a constant solvent concentration (1% DMSO) in the assay.
After incubation for 4.5 h at room temperature, the assays were filtered on GF/B filters pretreated with 0.3% (v/v) PEI with a Brandel system for [^3H] […] The experiment was performed in duplicate (n=2).

[2] = test system: pentylenetetrazole-induced convulsions; assay: Pentylenetetrazole (PTZ) Seizure Test; format: in vivo, rats; conditions: 10 mg/kg p.o., mesylate salt, PTZ 100 mg/kg s.c.
Experimental: Rats, placed in individual macrolon cages (25×19×13 cm), were injected with pentylenetetrazole (PTZ) (100 mg/kg s.c.). The occurrence and latency of clonic and tonic convulsions and death were noted over a 30 minute period. 15 rats were studied per group. The test was performed blind.
Test compound E1-8.2 was administered as the free base.
Compounds were evaluated typically using 0.5% dimethylsulfoxide, 4% hydroxypropyl-b-cyclodextrin water as a vehicle at 1 or more doses (e.g., 1, 3 and 10 mg/kg), administered p.o. 30 minutes before PTZ, and compared with a vehicle control group. Diazepam (16 mg/kg p.o.), administered 60 minutes before PTZ, was used as reference substance. The experiment was performed over 2 separate sub-experiments with N=7 to 8 animals per group and per sub-experiment. Quantitative data (latencies) with the test substance was analyzed by comparing treated groups with vehicle control using Kruskal-Wallis test followed by Mann-Whitney U test. Quantitative data with the reference substance was analyzed using Mann-Whitney U test. Quantal data (frequencies) was analyzed by comparing treated groups with vehicle control using Fisher's Exact Probability tests (*=p<0.05; **=p<0.01; ***=p<0.001).

[3] = test system: formalin-induced nociceptive behavior; assay: Rat Formalin Model; format: in vivo; conditions: rat, 10, 30 and 60 mpk i.p., mesylate salt
Experimental: The rat formalin model is a tonic model of continuous pain resulting from formalin-induced spontaneous nociceptive behaviors. Intra-paw injection of formalin is a commonly used model to measure spontaneous nociceptive behaviors in rodents (Dubuisson, D. and Dennis, S. G. Pain 4:161, 1977). Subcutaneous plantar injection of formalin causes a bi-phasic nocifensive behavioral response in rodents. The early phase (phase-I) lasts for about 5-10 min following which an interphase occurs without any discernible nociceptive reactions after which the late phase (phase-II) nociceptive reaction ensues continuing from about 20-60 min following formalin injection. Formalin model is a model of tonic, persistent pain, and is widely used for rapid screening of novel analgesic compounds. […] In the present example, effects of test item were assessed in 0-5 minutes from the early phase (phase-I) and 20-35 minutes from the late phase (phase-II) of formalin-induced nociceptive behavior. […]
For all groups, animals were acclimated to the observation chamber for 15 minutes immediately prior to formalin injection. All animals received an intraplantar subcutaneous injection of 50 μL of 5% formalin into the left hind paw and then placed immediately into an observation chamber and formalin-evoked spontaneous nociceptive behaviors in the rats were continuously recorded for 0-60 min using a commercial camcorder. […]

[4] = test system: KCl-induced cortical spreading depression; assay: Cortical spreading depression (CSD), aura phase of migraine model; format: in vivo; conditions: rats, mesylate salt
Experimental: The cortical spreading depression model is utilized to investigate whether treatment with compounds of the present invention affect electrophysiological and hemodynamic events in a rat model of migraine.
Rats were anesthetized with 5% isoflurane (in 70% N2O and 30% O2; flow 300 ml/min) and placed in a stereotactic frame. […] The rectal temperature was maintained at 37.0±1.0° C. with a homeothermic blanket system. The skin was opened by a medial incision and retracted laterally. Three burr holes were drilled under saline cooling over the right hemisphere at the following coordinates (mm from bregma): (1) posterior 4.5, lateral, 2.0 (occipital cortex): KCl application site; (2) posterior 0.5, lateral 2.0 (parietal cortex): LDF recording site; (3) anterior 2, lateral 2 (frontal cortex): DC potential recording site. A laser-Doppler flow probe (Oxyflow, Oxford Optronics, UK) to monitor CBF and an invasive Ag/AgCl electrode for measuring direct current (DC) potential shifts were placed in the parietal and frontal cortex burr holes on the intact dura and in the cortex, respectively. The laser-Doppler flow probe was positioned in an area free of large pial and dural vessels to minimize a large-vessel contribution to the signal. For the DC-potential measurement, a reference electrode was fixed in the neck. Dura overlying the occipital cortex was gently removed and care was taken to avoid bleeding. After surgical preparation, the cortex was allowed to recover for 15 minutes under saline irrigation. A cotton ball (2 mm diameter) soaked with 1M KCl was placed on the pial surface and kept moist by placing 5 μl of KCl solution every 15 minutes. Test compound or vehicle was administered ten (10) minutes prior to CSD initiation. […] The number of KCl-induced CSDs was counted for 2 hours. The CBF and DC-potentials were monitored continuously starting from 5 minutes before KCl exposure.
Test compound E1-1.2 was administered as a mesylate salt (mpk based on molecular weight of the mesylate salt).
The data was collected in Windaq acquisition software (Dataq Instruments, USA) at 20 kHz. The raw data was analyzed in Clampfit program (Axon Instruments, USA). The signals were low pass filtered (cut off range 5-10000 Hz) that CSD episodes in DC and CBF could be confirmed. The following parameters were analyzed: i) the number, duration and amplitude of DC-potentials, and ii) the number and amplitude of CBF events.
Doses were given as milligram per kilogram (mpk). […] Bars represent mean±Standard Error of Mean (SEM), and differences were considered to be statistically significant at the P<0.05 level (n=8, * different from vehicle group). Statistical analysis was performed using StatsDirect statistical software. Differences between groups were analyzed by using 1-way ANOVA and Dunnett's post hoc test.

SMILES: Cc1ccc(COC(=O)N2CC[C@H](CNc3nccn4cnnc34)C(F)(F)C2)cc1 [Compound E1-1.2, (+)-R-4-methylbenzyl 4-(([1,2,4]triazolo[4,3-a]pyrazin-8-ylamino)methyl)-3,3-difluoropiperidine-1-carboxylate]
- partial effect on [3H] MK-801 binding [1]: 40%
- latency to death, change vs vehicle controls [2]: +35%
- number of deaths, change vs vehicle controls [2]: −91%
- cumulative time spent on nociceptive behavior in phase I (0-5 mins) [3]: decreased
- cumulative time spent on nociceptive behavior in phase II (20-35 mins) [3]: decreased
- number of CBF events vs vehicle ([4]; 10 mg/kg): decreased
- number of DC potentials vs vehicle group ([4]; 3 mpk, 10 mpk and 30 mpk): significantly decreased
- magnitude of CBF vs vehicle [4]: unchanged
- amplitude of DC potentials vs vehicle ([4]; various doses): not statistically different
- duration of DC potentials vs vehicle ([4]; various doses): not statistically different
